Values of other authors, collected in patent US20060150828A1, “Dried infant cereal compositions” (Beech-Nut Nutrition Corporation, priority 2005, published 2006).

Conditions: storage at 37° C., precooked whole wheat flour containing the iron salt

| Substance | pentane formation (fat oxidation) |
| --- | --- |
| ferrous gluconate | rapidly generated pentane |
| ferrous sulfate | rapidly generated pentane |
